{"source": "patent US10195226B2", "about": "“Medicinal carbohydrates for treatment of respiratory conditions” (Australian Biomedical Company Pty Ltd., priority 2009, dated 2019)", "key": {"[1]": {"tested_on": "Small Airway Epithelial Cells (SAEC)", "conditions": "SAEC pretreated with neuraminidase, 24 h, control (treated with neuraminidase) = 100%, mean ± SEM, n = 3"}, "[2]": {"tested_on": "Normal Human Bronchial/Tracheal Epithelial Cells (NHBE)", "conditions": "NHBE pretreated with neuraminidase, 24 h, control (treated with neuraminidase) = 100%, mean ± SEM, n = 3"}, "mucocilliary transport": {"tested_on": "mucocilliary transport", "conditions": "reference [6]; result in words; cited from earlier work"}, "rabbits": {"tested_on": "rabbits", "conditions": "pre-treatment with repeated administrations (inhalations), reference [7]; cited from earlier work"}, "Balb-C mice [3]": {"tested_on": "Balb-C mice", "assay": "Tolerance study on Balb-C mice", "type": "in vivo", "excerpt": "(§1) Compounds of Formula (1) and/or (2) have been tested for safety by the applicants. For example, Compounds (1) and (2) were used in a tolerance and subchronic toxicity study on Balb-C mice (AEC Approval Code: BAM/B/2005/16)."}, "male Hartley guinea pigs": {"tested_on": "male Hartley guinea pigs", "assay": "Guinea pig cough model (neuraminidase aerosol, citric acid challenge)", "type": "in vivo", "conditions": "for Restoration of respiratory tract damages caused by neuraminidase: guinea pig cough model, oral dose of 500 mg/kg/day×3 days, result in words, 500 mg/kg/day", "method": "A guinea pig cough model was also established by the applicants. Compounds (1) and (2) were tested in this model. […] These in vivo results are in line with the in vitro data. Thus, both the efficacy and safety data support compounds of Formula (1) and/or (2) and particularly compounds (1) and (2) may be useful for medicinal applications.\nMale guinea pigs were housed in pens and have access to water and food ad libitum. This study was approved by Bio21 Institute Animal Ethics Committee.\nTwenty four Conscious male Hartley guinea pigs (500˜550 g) were divided into A, B, C three groups (8 animals for each group), and pretreated with either 5 units/ml solution of neuraminidase (Sigma N2133, lyophilized powder, Type X, 150˜400 units/mg protein) in water (group B and C) or saline alone (Group A) via an aerosol for 5 minutes on day one. Then, on day one, two and three, the guinea pigs were either orally administered with 500 mg/kg of compound (1) (Group C), or water alone (Group A and B). On day four, all the animals were challenged with 0.5M citric acid solution (nebulised, 10 minutes exposure). The cough frequency, times to the 1st, 2nd and third cough, and times to the 1st nose rubs were then recorded over a period of 15 minutes."}, "Balb-C mice [4]": {"tested_on": "Balb-C mice", "assay": "Subchronic toxicity study on Balb-C mice", "type": "in vivo", "excerpt": "as §1"}, "[5]": {"conditions": "mammals, reference [8]; cited from earlier work"}, "[6]": {"conditions": "guinea pigs, neuraminidase aerosol day one, 500 mg/kg oral on days one to three, 0.5M citric acid challenge day four"}}, "note": "Read-outs that look alike come from different tables or passages of the source."}
{"smiles": "CC(=O)NC1C(O)OC(COC(C)=O)C(OC(C)=O)C1OC(C)=O", "note": "(stereo not shown) [Compound (8)]", "values": [{"measurement": "Cell viability", "setting": "[1]; compound 0.003 μg/ml", "value": "125% ± 8.51"}, {"measurement": "Cell viability", "setting": "[1]; compound 0.05 μg/ml", "value": "109% ± 1.16"}, {"measurement": "Cell viability", "setting": "[1]; compound 0.19 μg/ml", "value": "115% ± 3.52"}, {"measurement": "Cell viability", "setting": "[1]; compound 0.77 μg/ml", "value": "103% ± 3.21"}, {"measurement": "Cell viability", "setting": "[1]; compound 3.1 μg/ml", "value": "109% ± 2.79"}, {"measurement": "Cell viability", "setting": "[1]; compound 12.5 μg/ml", "value": "104% ± 1.95"}, {"measurement": "Cell viability", "setting": "[1]; compound 50 μg/ml", "value": "91% ± 3.36"}, {"measurement": "Cell viability", "setting": "[2]; compound 0.003 μg/ml", "value": "129% ± 1.70"}, {"measurement": "Cell viability", "setting": "[2]; compound 0.012 μg/ml", "value": "118% ± 3.19"}, {"measurement": "Cell viability", "setting": "[2]; compound 0.05 μg/ml", "value": "93% ± 1.38"}, {"measurement": "Cell viability", "setting": "[2]; compound 0.19 μg/ml", "value": "96% ± 1.21"}, {"measurement": "Cell viability", "setting": "[2]; compound 0.77 μg/ml", "value": "133% ± 2.09"}, {"measurement": "Cell viability", "setting": "[2]; compound 3.1 μg/ml", "value": "111% ± 2.44"}, {"measurement": "Cell viability", "setting": "[2]; compound 12.5 μg/ml", "value": "81% ± 0.60"}, {"measurement": "Cell viability", "setting": "[2]; compound 50 μg/ml", "value": "42% ± 1.55"}]}
{"smiles": "CC(=O)N[C@H]1[C@H]([C@H](O)[C@H](O)CO)OC(O)(C(=O)O)C[C@@H]1O", "note": "(stereo partly shown) [N-acetylneuraminic acid]", "values": [{"measurement": "Protection against the impairment of the mucocilliary transport", "setting": "mucocilliary transport", "value": "dose-dependently protected"}, {"measurement": "Prevention of inflammatory changes caused by long term exposure of SO2", "setting": "rabbits", "value": "remarkably prevented the inflammatory changes"}]}
{"smiles": "CC(=O)N[C@H]1[C@H]([C@H](O)[C@H](O)CO)OC(O)(C(=O)[O-])C[C@@H]1O.[Na+]", "note": "(stereo partly shown) [Compound (2), N-acetylneuraminic acid sodium salt]", "values": [{"measurement": "Tolerance", "setting": "Balb-C mice [3]; 2 g/Kg intraperitoneal dose", "value": "well tolerated"}, {"measurement": "Tolerance", "setting": "Balb-C mice [3]; 5 g/Kg oral dose", "value": "well tolerated"}, {"measurement": "Restoration of respiratory tract damages caused by neuraminidase", "setting": "male Hartley guinea pigs; sodium salt", "value": "could restore the respiratory tract damages caused by neuraminidase"}]}
{"smiles": "CC(=O)NC1C(O)OC(CO)C(O)C1O", "note": "(stereo not shown) [Compound (9)]", "values": [{"measurement": "Cell viability", "setting": "[1]; compound 0.19 μg/ml", "value": "121% ± 2.42"}, {"measurement": "Cell viability", "setting": "[1]; compound 0.77 μg/ml", "value": "120% ± 3.14"}, {"measurement": "Cell viability", "setting": "[1]; compound 3.1 μg/ml", "value": "115% ± 3.17"}, {"measurement": "Cell viability", "setting": "[1]; compound 12.5 μg/ml", "value": "119% ± 3.04"}, {"measurement": "Cell viability", "setting": "[1]; compound 50 μg/ml", "value": "122% ± 3.21"}, {"measurement": "Cell viability", "setting": "[1]; high concentration 78.1 μg/ml", "value": "100% ± 2.92"}, {"measurement": "Cell viability", "setting": "[1]; high concentration 312.5 μg/ml", "value": "90% ± 3.28"}, {"measurement": "Cell viability", "setting": "[1]; high concentration 1.25 mg/ml", "value": "96% ± 3.16"}, {"measurement": "Cell viability", "setting": "[1]; high concentration 5 mg/ml", "value": "83% ± 2.85"}, {"measurement": "Cell viability", "setting": "[2]; compound 0.19 μg/ml", "value": "107% ± 3.41"}, {"measurement": "Cell viability", "setting": "[2]; compound 0.77 μg/ml", "value": "107% ± 1.26"}, {"measurement": "Cell viability", "setting": "[2]; compound 3.1 μg/ml", "value": "108% ± 3.24"}, {"measurement": "Cell viability", "setting": "[2]; compound 12.5 μg/ml", "value": "106% ± 3.49"}, {"measurement": "Cell viability", "setting": "[2]; compound 50 μg/ml", "value": "106% ± 2.52"}, {"measurement": "Cell viability", "setting": "[2]; high concentration 78.1 μg/ml", "value": "125% ± 3.23"}, {"measurement": "Cell viability", "setting": "[2]; high concentration 312.5 μg/ml", "value": "95% ± 2.85"}, {"measurement": "Cell viability", "setting": "[2]; high concentration 1.25 mg/ml", "value": "96% ± 2.42"}, {"measurement": "Cell viability", "setting": "[2]; high concentration 5 mg/ml", "value": "76% ± 2.71"}]}
{"smiles": "OC[C@H]1O[C@@H](O[C@H]2[C@H](O)[C@@H](O)C(O)O[C@@H]2CO)[C@H](O)[C@@H](O)[C@H]1O", "note": "(stereo partly shown) [lactose, reference compound]", "values": [{"measurement": "Protection against the impairment of the mucocilliary transport", "setting": "mucocilliary transport", "value": "not"}]}
{"smiles": "CC(=O)NC1C(OC(C)=O)OC(COC(C)=O)C(OC(C)=O)C1OC(C)=O", "note": "(stereo not shown) [Compound (7)]", "values": [{"measurement": "Cell viability", "setting": "[1]; compound 0.003 μg/ml", "value": "102% ± 0.62"}, {"measurement": "Cell viability", "setting": "[1]; compound 0.012 μg/ml", "value": "105% ± 1.83"}, {"measurement": "Cell viability", "setting": "[1]; compound 0.05 μg/ml", "value": "128% ± 1.98"}, {"measurement": "Cell viability", "setting": "[1]; compound 0.19 μg/ml", "value": "105% ± 2.01"}, {"measurement": "Cell viability", "setting": "[1]; compound 0.77 μg/ml", "value": "112% ± 1.29"}, {"measurement": "Cell viability", "setting": "[1]; compound 3.1 μg/ml", "value": "103% ± 1.14"}, {"measurement": "Cell viability", "setting": "[1]; compound 12.5 μg/ml", "value": "134% ± 0.81"}, {"measurement": "Cell viability", "setting": "[1]; compound 50 μg/ml", "value": "73% ± 2.18"}, {"measurement": "Cell viability", "setting": "[2]; compound 0.003 μg/ml", "value": "85% ± 2.71"}, {"measurement": "Cell viability", "setting": "[2]; compound 0.012 μg/ml", "value": "103% ± 4.70"}, {"measurement": "Cell viability", "setting": "[2]; compound 0.05 μg/ml", "value": "104% ± 5.85"}, {"measurement": "Cell viability", "setting": "[2]; compound 0.19 μg/ml", "value": "100% ± 0.66"}, {"measurement": "Cell viability", "setting": "[2]; compound 0.77 μg/ml", "value": "99% ± 1.93"}, {"measurement": "Cell viability", "setting": "[2]; compound 3.1 μg/ml", "value": "98% ± 5.65"}, {"measurement": "Cell viability", "setting": "[2]; compound 12.5 μg/ml", "value": "117% ± 4.12"}, {"measurement": "Cell viability", "setting": "[2]; compound 50 μg/ml", "value": "54% ± 0.98"}]}
{"smiles": "CC(=O)N[C@@H]1C(O)O[C@H](CO)[C@@H](O)[C@@H]1O", "note": "(stereo partly drawn) [Compound (1), N-acetyl-D-mannosamine]", "values": [{"measurement": "Tolerance", "setting": "Balb-C mice [3]; 2 g/Kg intraperitoneal dose", "value": "well tolerated"}, {"measurement": "Tolerance", "setting": "Balb-C mice [3]; 5 g/Kg oral dose", "value": "well tolerated"}, {"measurement": "Subchronic toxicity", "setting": "Balb-C mice [4]; 0.5 g/Kg/day×30 days intraperitoneal dose", "value": "non-toxic"}, {"measurement": "Subchronic toxicity", "setting": "Balb-C mice [4]; 1 g/Kg/day×30 days oral dose", "value": "non-toxic"}, {"measurement": "Restoration of respiratory tract damages caused by neuraminidase", "setting": "male Hartley guinea pigs", "value": "could restore the respiratory tract damages caused by neuraminidase"}, {"measurement": "Restoration of respiratory tract damages caused by neuraminidase", "setting": "male Hartley guinea pigs; listed as compound (1)", "value": "helped to restore the damages caused by neuraminidase"}, {"measurement": "Cough frequency (in 15 minutes)", "setting": "male Hartley guinea pigs; [6]", "value": "16 ± 2.2"}, {"measurement": "Time (second) to the 1st nose rubs", "setting": "male Hartley guinea pigs; [6]", "value": "49 ± 6.5", "unit": "s"}, {"measurement": "Time (seconds) to the 1st cough", "setting": "male Hartley guinea pigs; [6]", "value": "85 ± 15", "unit": "s"}, {"measurement": "Time (seconds) to the 2nd cough", "setting": "male Hartley guinea pigs; [6]", "value": "137 ± 31", "unit": "s"}, {"measurement": "Time (seconds) to the 3rd cough", "setting": "male Hartley guinea pigs; [6]", "value": "220 ± 10", "unit": "s"}, {"measurement": "Metabolism after oral administration", "setting": "[5]", "value": "rapidly metabolized into glucose"}]}
